The record followed here is patent publication US9096639B2, “17-hydroxy-17-pentafluorethyl-estra-4,9(10)-dien-11-acyloxyalkylene phenyl derivatives, methods for the production thereof and use thereof for treating diseases” (Bayer Intellectual Property GmbH, priority 2009, dated 2015).

Counter-ions that a name gives are not always drawn.

Data set [1] is described as follows: Determination of stability in human plasma. In kind it is in vitro ADME. As to the method:
(§1) A stock solution of 1.0 mg of the substance to be tested in a 9:1 mixture of acetonitrile and dimethyl sulphoxide was prepared. 20 μl of this stock solution were added at 37° C. to 1 ml of human plasma or rat plasma. To determine the content, 100 μl samples were each taken at different times. The enzyme activity was blocked by adding 300 μl of acetonitrile, the samples were centrifuged at 5000 rpm over 10 minutes and, in the supernatant, the content of ester and hydrolysis products (8S,11R,13S,14S,17S)-17-hydroxy-11-[4-((R)-1-hydroxyethyl)phenyl]-1 3-methyl-17-pentafluoroethyl-1,2,6,7,8,11,12,13,14,15,16,17-dodecahydrocyclopenta[a]phenanthren-3-one and/or (8S,11R,13S,14S,17S)-17-hydroxy-11-[4-((S)-1-hydroxyethyl)phenyl]-13-methyl-17-pentafluoroethyl-1,2,6,7,8,11,12,13,14,15,16,17-dodecahydrocyclopenta[a]phenanthrene-3-one was determined by HPLC. The concentration-time curves were used to calculate the degradation kinetics. The stability of the substance tested was reported as the half-life.

The target of data set [2] is T1, human progesterone receptor A (Homo sapiens, UniProt P06401).
T1 construct: expressed in transfected cells; host or cells: SK-N-MC human neuroblastoma cells, stably transfected with pRChPR-A-neo and pMMTV-LUC
T1 sequence (P06401 1-769 isoform P06401-2): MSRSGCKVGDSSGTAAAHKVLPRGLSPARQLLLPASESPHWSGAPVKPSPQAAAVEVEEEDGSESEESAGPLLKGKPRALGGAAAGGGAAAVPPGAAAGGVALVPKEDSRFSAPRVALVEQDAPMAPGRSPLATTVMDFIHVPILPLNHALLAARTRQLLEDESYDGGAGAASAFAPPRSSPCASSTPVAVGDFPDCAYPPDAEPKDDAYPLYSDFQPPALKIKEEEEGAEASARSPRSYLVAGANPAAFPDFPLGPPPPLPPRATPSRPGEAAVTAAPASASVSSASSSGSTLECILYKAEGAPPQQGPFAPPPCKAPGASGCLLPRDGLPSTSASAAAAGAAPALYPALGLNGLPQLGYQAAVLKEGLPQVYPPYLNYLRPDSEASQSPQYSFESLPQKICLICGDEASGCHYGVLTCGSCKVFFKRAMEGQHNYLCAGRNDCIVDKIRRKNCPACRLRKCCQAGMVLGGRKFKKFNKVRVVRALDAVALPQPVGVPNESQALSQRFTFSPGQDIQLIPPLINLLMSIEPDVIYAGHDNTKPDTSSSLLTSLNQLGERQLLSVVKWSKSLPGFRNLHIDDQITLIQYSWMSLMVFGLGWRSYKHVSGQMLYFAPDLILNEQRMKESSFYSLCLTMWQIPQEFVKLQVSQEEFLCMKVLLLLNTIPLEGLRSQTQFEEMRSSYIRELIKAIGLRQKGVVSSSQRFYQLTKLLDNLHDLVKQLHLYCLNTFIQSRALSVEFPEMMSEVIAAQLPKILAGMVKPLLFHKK
Nature of the data set: Progesterone receptor transactivation test in stably transfected SK-N-MC cells (PR-A, MMTV-LUC reporter). In kind it is cell-based. The note with it: 0.1 nmol/l promegestone, 24 hours, read-out: PR-A IC50 (antagonistic potency). As to the method:
(§2) Progesterone receptor-antagonistic action in stable transfectants of human neuroblastoma cells (SK-N-MC cells) with the human progesterone A or progesterone B receptor and an MN-LUC reporter construct SK-N-MC cells (human neuroblastoma cells) which have been stably transfected with plasmids expressing the human progesterone receptor B (pRChPR-B-neo) or the human progesterone receptor A (pRChPR-A-neo) and a reporter construct (pMMTV-LUC) were incubated for 24 hours either in the absence (negative control) or in the presence of ascending amounts of the particular test compound (0.01 nmol/l, 0.1 nmol/l, 1 […], 100 nmol/l and […]), in order to determine the agonistic efficacy. As a positive control of the reporter gene induction, the cells were treated with the synthetic gestagen promegestone (0.01 nmol/l, 0.1 nmol/l, 1 nmol/l, 10 nmol/l, 100 nmol/l and […]). To determine the antagonistic activity, the cells were treated with 0.1 nmol/l promegestone and additionally with ascending amounts of the particular test compound (0.01 nmol/l, 0.1 nmol/l, 1 nmol/l, 10 nmol/l, 100 nmol/l and […]). The activity of the reporter gene LUC (LUC=luciferase) was determined in the cell lysates and measured as RLU (relative light units). All measurements are reported as % efficacy and as EC50 and IC50 concentrations.

The target of data set [3] is T2, human progesterone receptor B (Homo sapiens, UniProt P06401).
T2 construct: expressed in transfected cells; host or cells: SK-N-MC human neuroblastoma cells, stably transfected with pRChPR-B-neo and pMMTV-LUC
T2 sequence (P06401 1-933): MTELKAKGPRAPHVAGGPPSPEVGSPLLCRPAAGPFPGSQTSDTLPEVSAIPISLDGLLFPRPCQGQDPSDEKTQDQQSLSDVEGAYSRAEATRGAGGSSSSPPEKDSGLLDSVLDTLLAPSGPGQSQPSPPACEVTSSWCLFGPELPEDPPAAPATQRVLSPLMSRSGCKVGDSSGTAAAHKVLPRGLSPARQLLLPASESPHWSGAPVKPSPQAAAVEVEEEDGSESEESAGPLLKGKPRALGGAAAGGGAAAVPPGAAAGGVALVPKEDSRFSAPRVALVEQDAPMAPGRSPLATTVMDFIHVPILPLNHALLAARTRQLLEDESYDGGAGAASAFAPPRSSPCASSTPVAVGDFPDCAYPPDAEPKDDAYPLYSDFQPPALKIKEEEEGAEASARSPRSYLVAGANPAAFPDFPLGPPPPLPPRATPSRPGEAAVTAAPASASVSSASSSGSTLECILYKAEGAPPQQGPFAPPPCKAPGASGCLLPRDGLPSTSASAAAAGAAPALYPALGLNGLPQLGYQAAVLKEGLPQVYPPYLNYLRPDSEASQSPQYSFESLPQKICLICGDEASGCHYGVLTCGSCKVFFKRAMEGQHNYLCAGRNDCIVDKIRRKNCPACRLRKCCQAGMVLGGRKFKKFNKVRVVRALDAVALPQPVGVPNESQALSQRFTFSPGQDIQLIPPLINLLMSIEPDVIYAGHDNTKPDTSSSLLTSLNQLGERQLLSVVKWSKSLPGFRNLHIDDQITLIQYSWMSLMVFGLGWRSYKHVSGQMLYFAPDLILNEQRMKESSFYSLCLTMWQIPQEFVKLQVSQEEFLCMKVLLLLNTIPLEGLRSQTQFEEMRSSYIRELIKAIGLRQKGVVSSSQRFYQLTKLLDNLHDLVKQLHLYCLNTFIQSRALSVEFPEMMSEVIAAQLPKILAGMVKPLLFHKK
Briefly: Progesterone receptor transactivation test in stably transfected SK-N-MC cells (PR-B, MMTV-LUC reporter). The settings on record: 0.1 nmol/l promegestone, 24 hours, read-out: PR-B IC50 (antagonistic potency). It counts as cell-based. As to the method:
as §2

Data set [4] can be described thus: Determination of stability in rat plasma. The settings on record: 37° C., read-out: Stability t1/2 in rat plasma (converted). In kind it is in vitro ADME. As to the method:
as §1

A short description of data set [5]: Determination of hydrolytic stability (5:1 dioxane/buffer, HPLC). It counts as physicochemical. The settings on record: 5:1 dioxane/buffer solution, test ended after 24 or 192 hours, read-out: Hydrolytic stability t1/2. The protocol: The ester to be analyzed was dissolved in each case in a 5:1 mixture of dioxane and buffer solution (pH 1.2, pH 5.0 or pH 8.0) at 23° C. At different times, the content of ester and hydrolysis products (8S,11R,13S,14S,1 7S)-17-hydroxy-11-[4-((R)-1-hydroxyethyl)phenyl]-13-methyl-17-pentafluoroethyl-1,2,6,7,8,11,12,13,14,15,16,17-dodecahydrocyclopenta[a]phenanthren-3-one and/or (8S,11R,13S,14S,17S)-17-hydroxy-11-[4-((S)-1-hydroxyethyl)phenyl]-1 3-methyl-17-pentafluoroethyl-1,2,6,7,8,11,12,13,14,15,16,17-dodecahydrocyclopenta[a]phenanthren-3-one was determined by HPLC. The test was ended after 24 hours or 192 hours.

The mark [6] stands for this setting: 37° C., read-out: Stability t1/2 in human plasma (converted).
[7] abbreviates: method of working example 19, summary statement in description, read-out: half-life in human plasma.

For the compound `C=CCOC(=O)N[C@H](C(=O)OC(C)c1ccc([C@H]2C[C@@]3(C)C(CC[C@@]3(O)C(F)(F)C(F)(F)F)C3CCC4=CC(=O)CCC4=C32)cc1)C(C)C` (mixture of isomers) [Example 16, (S)-2-Allyloxycarbonylamino-3-methylbutyric acid (RS)-1-[4-((8S,11R,13S,14S,17S)-17-hydroxy-1 3-methyl-3-oxo-1 7-pentafluoroethyl-2,3,6,7,8,11,12,13,14,15,16,17-dodecahydro-1H-cyclopenta[a]phenanthren-11-yl)phenyl]ethyl ester], the half-life in data set [1] (setting [6]) was above 1000 h; in data set [1] (setting [7]), above 100 h; in data set [4], 33.2 h; in data set [5] (pH = 1.2, 23° C.), above 192 h; in data set [5] (pH = 8.0, 23° C.), above 192 h. Besides, the IC50 (in general, the concentration that gives 50% inhibition) in data set [2] was found to be 0.11 nM; in data set [3], 0.71 nM.

`CC(OC(=O)[C@@H]1CCCN1C(=O)OC(C)(C)C)c1ccc([C@H]2C[C@@]3(C)C(CC[C@@]3(O)C(F)(F)C(F)(F)F)C3CCC4=CC(=O)CCC4=C32)cc1` (mixture of isomers) [Example 11, (S)-Pyrrolidine-1,2-dicarboxylic acid 1-tert-butyl ester 2-{(RS)-1-[4-((8S,11R,13S,14S,17S)-17-hydroxy-13-methyl-3-oxo-17-pentafluoroethyl-2,3,6,7,8,11,12,13,14,15,16,17-dodecahydro-1H-cyclopenta[a]phenanthren-11-yl)phenyl]ethyl}ester]: the half-life in data set [1] (setting [6]) is above 1000 h; in data set [1] (setting [7]), above 100 h; in data set [4], 462 h; in data set [5] (pH = 1.2, 23° C.), above 192 h; in data set [5] (pH = 8.0, 23° C.), above 192 h. The IC50 came to 0.1 nM in data set [2] and 0.05 nM in data set [3].

As to `C=CCOC(=O)N[C@@H](C)C(=O)O[C@H](C)c1ccc([C@H]2C[C@@]3(C)[C@@H](CC[C@@]3(O)C(F)(F)C(F)(F)F)[C@@H]3CCC4=CC(=O)CCC4=C32)cc1` [Example 9, (S)-2-Allyloxycarbonylaminopropionic acid (R)-1-[4-((8S,11R,13S,14S,17S)-17-hydroxy-13-methyl-3-oxo-17-pentafluoroethyl-2,3,6,7,8,11,12,13,14,15,16,17-dodecahydro-1H-cyclopenta[a]phenanthren-11-yl)phenyl]ethyl ester], the half-life is 231 h in data set [1] (setting [6]), above 100 h in data set [1] (setting [7]) and 0.3 h in data set [4]. The IC50 in data set [2] was determined as 0.01 nM; in data set [3], 0.09 nM.

Regarding `CC(OC(=O)[C@@H]1CCCN1)c1ccc([C@H]2C[C@@]3(C)C(CC[C@@]3(O)C(F)(F)C(F)(F)F)C3CCC4=CC(=O)CCC4=C32)cc1` (mixture of isomers) [Example 13, (S)-Pyrrolidine-2-carboxylic acid (RS)-1-[4-((8S,11R,13S,14S,17S)-17-hydroxy-13-methyl-3-oxo-17-pentafluoroethyl-2,3,6,7,8,11,12,13,14,15,16,17-dodecahydro-1H-cyclopenta[a]phenanthren-11-yl)phenyl]ethyl ester hydrochloride], the half-life is 9.7 h in data set [1] (setting [6]); 5.3 h in data set [4]; above 192 h in data set [5] (pH = 1.2, 23° C.); above 192 h in data set [5] (pH = 8.0, 23° C.). In addition, the figures for the IC50 in data set [2] and in data set [3] were 0.27 nM and 0.74 nM, respectively.

Turning to `C=CCOC(=O)N[C@@H](C)C(=O)O[C@@H](C)c1ccc([C@H]2C[C@@]3(C)[C@@H](CC[C@@]3(O)C(F)(F)C(F)(F)F)[C@@H]3CCC4=CC(=O)CCC4=C32)cc1` [Example 10, (S)-2-Allyloxycarbonylaminopropionic acid (S)-1-[4-((8S,11R,13S,14S,17S)-17-hydroxy-13-methyl-3-oxo-17-pentafluoroethyl-2,3,6,7,8,11,12,13,14,15,16,17-dodecahydro-1H-cyclopenta[a]phenanthren-11-yl)phenyl]ethy lester], the half-life in data set [1] (setting [6]) was 22.9 h; in data set [4], 3.6 h. Moreover, the IC50 in data set [2] was 0.08 nM; in data set [3], 0.09 nM.

As to `Cc1nccn1CCC(=O)O[C@@H](C)c1ccc([C@H]2C[C@@]3(C)[C@@H](CC[C@@]3(O)C(F)(F)C(F)(F)F)[C@@H]3CCC4=CC(=O)CCC4=C32)cc1` (single isomer, unassigned) [Example 14A], the half-life in data set [1] (setting [6]) was 190 h; in data set [1] (setting [7]) it was above 100 h; in data set [4], 48.5 h. In addition, the IC50 in data set [2] came to 0.18 nM; in data set [3], 0.29 nM.

Take `Cc1nccn1CCC(=O)O[C@H](C)c1ccc([C@H]2C[C@@]3(C)[C@@H](CC[C@@]3(O)C(F)(F)C(F)(F)F)[C@@H]3CCC4=CC(=O)CCC4=C32)cc1` (single isomer, unassigned) [Example 14B]: the half-life is 19.8 h in data set [1] (setting [6]) and 0.8 h in data set [4]. The concentration for half-maximal inhibition (IC50) in data set [2] turned out to be 0.29 nM; in data set [3], 0.15 nM.
